Results from patent publication US20250345339A1, “DOSES AND REGIMENS OF HER2 INHIBITORS” (IAMBIC THERAPEUTICS, INC., priority 2024, published 2025).
“Also recorded” adds a separate entry of the source. Values belong to the molecule of their own block, whether it stands above or below them.

How the values were obtained:
[1] = target: EGFR (Homo sapiens (Human), UniProt P00533); test: Enzyme inactivation kinetics, EGFR; type: biochemical; conditions: Table 23
[2] = test system: BT-474 breast cancer cell line; test: BT-474 xenograft tumor growth inhibition; type: in vivo, mouse; conditions: clinical reference compounds
Description: The tumor cells were routinely sub-cultured after confluence by trypsin-EDTA treatment, not to exceed 4-5 passages. The cells growing in an exponential growth phase were harvested and counted for tumor inoculation.
Tumor size and body weight measurement was conducted twice weekly.

[3] = test system: JIMT-1; test: JIMT-1 breast tumor model; conditions: 20/15 mg/kg PO daily for 9 then 12 days
[4] = target: ERBB2-A775_G776insYVMA (Homo sapiens (Human), UniProt P04626, INS775YVMA); test: HotSpot radiometric kinase activity assay, HER2 YVMA; type: biochemical
Description: (§1) The purpose of the wtERBB2, ERBB2-A775_G776insYVMA (ERBB2YVMA), wtEGFR biochemical assay was to evaluate the inhibition (% inhibition and IC50 values) of the small molecule inhibitors by using the “HotSpot” radiometric kinase activity assay. HotSpot assays monitor the […] of kinase substrate by the radioactive gamma phosphate of adenosine triphosphate (33P-ATP) during biochemical reactions. HotSpot assays was performed in steps upon completion of the kinase reaction: deposition of a reaction mixture aliquot onto P81 ion exchange paper, extensive washing of the aforementioned P81 paper using phosphoric acid to remove unbound radiolabeled 33P-ATP from the P81 paper, and finally visualization and quantification of the dried P81 paper utilizing a phosphoimager. […] Typical reaction solutions (10 μL final reaction volume) contained the following buffer conditions: 20 mM Hepes (pH 7.5), 10 mM MgCl2, 1 mM EGTA, 0.01% Brij35, 0.02 mg/mL BSA, 0.1 mM Na3VO4, 2 mM DTT, 1% DMSO. The assay was primed by preparing a fresh 0.2 mg/mL solution of pEY (Sigma Cat: P7244) substrate in the reaction buffer and supplementing that solution with […] of MnCl2 as substrate cofactor (Sigma Cat: M9522). The kinase of interest was then added to the solution at the appropriate concentration (30 nM wtERBB2 from, or 20 nM ERBB2YVMA, or 4 nM wtEGFR) and gently mixed prior to delivery of compound in 100% DMSO by acoustic dispensing (Beckman Echo550). Compound, Kinase, and substrate were allowed to incubate for 20 minutes at room temperature prior to the initiation of the reaction by addition of 33P-ATP (PerkinElmer Cat: NEG602, final conc 10 μM). […] IC50 determinations were made from a plot of kinase activity as a function of inhibitor concentration fit to the 4-parameter IC50 equation with the enzyme concentration held constant using GraphPad Prism (San Diego).

[5] = target: wtERBB2 (Homo sapiens (Human), UniProt P04626); test: HotSpot radiometric kinase activity assay, HER2 WT; type: biochemical
Description: as §1

[6] = target: wtEGFR (Homo sapiens (Human), UniProt P00533); test: HotSpot radiometric kinase activity assay, EGFR WT; type: biochemical
Description: as §1

[7] = in vivo; conditions: mouse, tumor/plasma
[8] = test system: HCC1954; test: HCC1954 xenograft tumor growth inhibition; type: in vivo, mouse
Description: HCC1954 cells were thawed and cultured in vitro, and the HCC1954 cells were harvested for in vivo inoculation. After one week of acclimation, 16 female 6-8 weeks-old mice were used. After inoculation, the tumor volume and body weight of the mice were measured three times per week. When the average tumor volume reaches about 200 mm^3, mice were randomly grouped into 2 groups according to the tumor volume and body weight. Test drugs were administrated immediately afterward. Tumor volume and body weight measurements were taken twice a week. At the end of the study, tumor and plasma samples were collected. The mouse grouping and test material treatment for tumor growth inhibition is listed Table 7. Tumor size and body weight measurement were conducted twice weekly. At the end of study, Group 1 and Group 2 were split into 2 sub-groups, dosed and samples collected as described Table 8. At the end of treatment, tumor samples were collected for pharmacodynamic (PD) analysis.

[9] = test system: BaF3 P95Her2; conditions: 100 mg/kg PO daily for 20 days
[10] = test system: MDAMB453; test: MDAMB453 breast cancer model; conditions: 100 mg/kg PO daily for 14 days
[11] = test system: KYSE410; test: KYSE410 tumor model (HER2+ and KRAS G12C); conditions: Compound 5 at 250 mg/kg
[12] = test system: NCI-N87-luciferase gastric cancer cell line; test: Intracranial NCI-N87-luciferase tumor model; conditions: for Tumor Growth Inhibition: intracranial NCI-N87, 100 mg/kg QD
Description: The dosing duration was 37 days, started 12 days after cell inoculation. The dosing Day 1 was Day 12 post cell inoculation.
The total bioluminescent signals (photons/s) emitted from the brains after luciferin injection were used as an indicator of tumor growth and antitumor activity.

ERBB2-A775_G776insYVMA, sequence (P04626 other isoform, or with tags, fused parts or gaps del 1-675/ins YVMA behind 775 limits assumed): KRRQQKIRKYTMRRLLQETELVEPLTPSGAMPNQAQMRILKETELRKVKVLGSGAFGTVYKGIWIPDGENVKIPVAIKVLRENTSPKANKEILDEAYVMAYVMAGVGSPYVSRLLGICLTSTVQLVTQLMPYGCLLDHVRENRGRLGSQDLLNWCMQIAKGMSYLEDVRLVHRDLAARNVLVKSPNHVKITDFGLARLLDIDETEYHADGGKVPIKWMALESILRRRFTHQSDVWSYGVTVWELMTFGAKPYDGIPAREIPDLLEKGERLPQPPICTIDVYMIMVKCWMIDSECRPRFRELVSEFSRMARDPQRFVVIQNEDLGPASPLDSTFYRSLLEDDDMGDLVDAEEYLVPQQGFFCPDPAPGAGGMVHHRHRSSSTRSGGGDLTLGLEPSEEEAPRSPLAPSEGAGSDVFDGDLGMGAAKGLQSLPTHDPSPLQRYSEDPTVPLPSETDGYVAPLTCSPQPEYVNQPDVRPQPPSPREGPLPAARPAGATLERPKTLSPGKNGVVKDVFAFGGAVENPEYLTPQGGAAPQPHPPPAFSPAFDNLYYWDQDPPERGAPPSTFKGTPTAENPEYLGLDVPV
EGFR, sequence (P00533 25-1210): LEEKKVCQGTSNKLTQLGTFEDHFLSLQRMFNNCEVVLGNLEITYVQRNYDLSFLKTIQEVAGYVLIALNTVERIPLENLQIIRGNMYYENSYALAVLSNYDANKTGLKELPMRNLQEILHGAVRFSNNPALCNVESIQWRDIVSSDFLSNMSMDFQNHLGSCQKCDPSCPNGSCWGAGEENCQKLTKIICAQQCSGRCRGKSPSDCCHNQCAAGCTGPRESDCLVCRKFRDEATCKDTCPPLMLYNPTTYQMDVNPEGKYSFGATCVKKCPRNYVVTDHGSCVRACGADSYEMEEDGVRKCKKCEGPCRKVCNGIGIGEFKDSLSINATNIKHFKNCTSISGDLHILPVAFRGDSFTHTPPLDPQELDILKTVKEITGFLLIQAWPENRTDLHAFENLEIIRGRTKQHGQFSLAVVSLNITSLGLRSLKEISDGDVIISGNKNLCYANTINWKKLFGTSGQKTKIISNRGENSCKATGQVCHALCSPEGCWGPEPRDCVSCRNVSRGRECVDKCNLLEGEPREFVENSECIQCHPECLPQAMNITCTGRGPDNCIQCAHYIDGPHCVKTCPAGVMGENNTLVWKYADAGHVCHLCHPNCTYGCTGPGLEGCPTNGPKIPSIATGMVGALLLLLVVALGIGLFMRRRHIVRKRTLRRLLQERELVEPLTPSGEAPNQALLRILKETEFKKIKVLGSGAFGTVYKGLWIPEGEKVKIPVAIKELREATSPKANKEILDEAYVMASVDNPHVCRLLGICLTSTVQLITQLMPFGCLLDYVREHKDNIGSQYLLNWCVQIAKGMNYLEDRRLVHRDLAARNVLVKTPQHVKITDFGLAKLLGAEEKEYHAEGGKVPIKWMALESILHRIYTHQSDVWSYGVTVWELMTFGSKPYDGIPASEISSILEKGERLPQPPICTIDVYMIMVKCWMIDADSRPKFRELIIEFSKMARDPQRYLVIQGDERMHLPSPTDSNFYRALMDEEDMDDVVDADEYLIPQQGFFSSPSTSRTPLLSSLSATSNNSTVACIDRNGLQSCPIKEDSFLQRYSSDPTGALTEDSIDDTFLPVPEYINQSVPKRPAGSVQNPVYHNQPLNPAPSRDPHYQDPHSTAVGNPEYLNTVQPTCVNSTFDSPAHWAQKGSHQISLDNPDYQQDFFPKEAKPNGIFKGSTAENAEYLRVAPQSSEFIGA
wtEGFR, sequence (P00533 25-1210): as above
wtERBB2, sequence (P04626 23-1255): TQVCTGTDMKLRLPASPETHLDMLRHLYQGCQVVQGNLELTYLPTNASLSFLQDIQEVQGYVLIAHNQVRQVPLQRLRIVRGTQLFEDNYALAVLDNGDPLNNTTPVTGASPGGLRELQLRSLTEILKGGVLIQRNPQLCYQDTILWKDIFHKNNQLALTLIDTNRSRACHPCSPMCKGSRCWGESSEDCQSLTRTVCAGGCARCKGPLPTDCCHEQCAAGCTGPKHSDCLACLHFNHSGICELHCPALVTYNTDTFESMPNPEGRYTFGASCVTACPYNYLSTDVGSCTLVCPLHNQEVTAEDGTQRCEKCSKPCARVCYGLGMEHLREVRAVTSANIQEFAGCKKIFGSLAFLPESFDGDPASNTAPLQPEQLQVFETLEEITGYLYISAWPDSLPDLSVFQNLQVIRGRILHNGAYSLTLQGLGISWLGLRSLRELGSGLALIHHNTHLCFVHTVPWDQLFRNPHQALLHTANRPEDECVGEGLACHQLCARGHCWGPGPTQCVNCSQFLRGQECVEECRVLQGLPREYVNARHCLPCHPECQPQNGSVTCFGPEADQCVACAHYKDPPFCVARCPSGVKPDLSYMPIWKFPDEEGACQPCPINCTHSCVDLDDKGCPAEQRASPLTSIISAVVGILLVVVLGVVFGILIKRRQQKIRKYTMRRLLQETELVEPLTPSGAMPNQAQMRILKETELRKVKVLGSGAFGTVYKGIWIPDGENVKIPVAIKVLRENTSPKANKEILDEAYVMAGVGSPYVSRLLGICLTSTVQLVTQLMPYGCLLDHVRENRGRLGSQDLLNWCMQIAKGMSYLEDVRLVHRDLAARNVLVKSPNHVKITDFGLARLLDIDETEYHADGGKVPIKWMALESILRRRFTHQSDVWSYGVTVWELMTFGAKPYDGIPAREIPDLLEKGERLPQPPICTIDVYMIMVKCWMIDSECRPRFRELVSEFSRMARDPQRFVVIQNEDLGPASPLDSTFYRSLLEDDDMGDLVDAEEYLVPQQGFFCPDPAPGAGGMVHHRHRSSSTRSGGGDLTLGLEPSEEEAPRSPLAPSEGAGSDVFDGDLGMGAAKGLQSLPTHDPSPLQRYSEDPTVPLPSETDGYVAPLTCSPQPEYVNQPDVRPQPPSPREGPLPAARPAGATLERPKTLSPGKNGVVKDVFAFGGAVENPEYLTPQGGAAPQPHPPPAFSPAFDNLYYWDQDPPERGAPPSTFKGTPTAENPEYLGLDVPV

EGFR kinact (s − 1) [1]: 1.1 × 10^−2 s − 1
HER2 vs. EGFR Kinetic Selectivity [1]: 47
Ki [1]: 680 nM
Compound: Cc1noc2ccc(C(=O)Nc3ccc4[nH]c(CN5CCCC5)nc4c3)cc12 [ELVN-002]

Compound: CCOc1cc2ncnc(Nc3ccc(Oc4ccn5ncnc5c4)c(C)c3)c2cc1NC(=O)/C(F)=C/[C@H]1CCCN1C [SPH5030]
TR compared with Compound 5 [2]: significantly less TR than Compound 5

Compound: Cc1nc(NC(=O)N2CCC[C@H]2C(N)=O)sc1-c1ccnc(C(C)(C)C(F)(F)F)c1 [alpilisib]
TGI [3]: 64%

IC50 [4]: < 200 nM
IC50 [5]: < 200 nM
Compound: Cc1cc(Nc2ncnn3ccc(C4CCCN(C(=O)/C=C/CN(C)C)CC4)c23)ccc1Oc1ccn2ncnc2c1 (centres unmarked) [Compound 12, (E)-1-(4-(4-((4-([1,2,4]triazolo[1,5-a]pyridin-7-yloxy)-3-methylphenyl)amino)pyrrolo[2,1-f][1,2,4]triazin-5-yl)azepan-1-yl)-4-(dimethylamino)but-2-en-1-one]

IC50 [4]: < 200 nM
IC50 [5]: < 200 nM
Compound: Cc1cc(Nc2ncnn3ccc(C4CC5(C4)CN(C(=O)/C=C/CN(C)C)C5)c23)ccc1Oc1ccn2ncnc2c1 [Compound 13, (E)-1-(6-(4-((4-([1,2,4]triazolo[1,5-a]pyridin-7-yloxy)-3-methylphenyl)amino)pyrrolo[2,1-f][1,2,4]triazin-5-yl)-2-azaspiro[3.3]heptan-2-yl)-4-(dimethylamino)but-2-en-1-one]

IC50 [4]: < 200 nM
IC50 [5]: < 200 nM
IC50 [6]: < 200 nM
Compound: Cc1cc(Nc2ncnn3ccc(C4CN(C(=O)/C=C/CN(C)C)C4)c23)ccc1Oc1ccn2ncnc2c1 [Compound 1, (E)-1-(3-(4-((4-([1,2,4]triazolo[1,5-a]pyridin-7-yloxy)-3-methylphenyl)amino)pyrrolo[2,1-f][1,2,4]triazin-5-yl)azetidin-1-yl)-4-(dimethylamino)but-2-en-1-one]

IC50 [5]: < 200 nM
Compound: Cc1cc(Nc2ncnn3ccc(-c4cnn(CCNC(=O)/C=C/CN(C)C)c4)c23)ccc1Oc1ccn2ncnc2c1 [Compound 14, (E)-N-(2-(4-(4-((4-([1,2,4]triazolo[1,5-a]pyridin-7-yloxy)-3-methylphenyl)amino)pyrrolo[2,1-f][1,2,4]triazin-5-yl)-1H-pyrazol-1-yl)ethyl)-4-(dimethylamino)but-2-enamide]

IC50 [4]: < 200 nM
IC50 [5]: < 200 nM
IC50 [6]: < 200 nM
Compound: C=CC(=O)N1CC(c2ccn(-c3ccn4ncnc(Nc5ccc(Oc6ccn7ncnc7c6)c(C)c5)c34)n2)C1 [Compound 8, 1-(3-(1-(4-((4-([1,2,4]triazolo[1,5-a]pyridin-7-yloxy)-3-methylphenyl)amino)pyrrolo[2,1-f][1,2,4]triazin-5-yl)-1H-pyrazol-3-yl)azetidin-1-yl)prop-2-en-1-one]

Kp at 4 h [7]: 0.36
Compound: C=CC(=O)N1CCC(Oc2cc3c(Nc4ccc(Cl)c(Cl)c4F)ncnc3cc2OC)CC1 [Poziotinib]

IC50 [4]: < 200 nM
IC50 [5]: < 200 nM
IC50 [6]: < 200 nM
Compound: C=CC(=O)N1CCN(c2ccn3ncnc(Nc4ccc(Oc5ccn6ncnc6c5)c(C)c4)c23)CC1 [Compound 3, 1-(4-(4-((4-([1,2,4]triazolo[1,5-a]pyridin-7-yloxy)-3-methylphenyl)amino)pyrrolo[2,1-f][1,2,4]triazin-5-yl)piperazin-1-yl)prop-2-en-1-one]

IC50 [4]: < 200 nM
IC50 [5]: < 200 nM
IC50 [6]: < 200 nM
Compound: C=CC(=O)N1CCC(c2ccn3ncnc(Nc4ccc(Oc5ccn6ncnc6c5)c(C)c4)c23)CC1 [Compound 4, 1-(4-(4-((4-([1,2,4]triazolo[1,5-a]pyridin-7-yloxy)-3-methylphenyl)amino)pyrrolo[2,1-f][1,2,4]triazin-5-yl)piperidin-1-yl)prop-2-en-1-one]

Compound: Cc1cc(Nc2ncnc3ccc(NC4=NC(C)(C)CO4)cc23)ccc1Oc1ccn2ncnc2c1 [Tucatinib]
TR compared with Compound 5 [2]: significantly less TR than Compound 5
TGI (tumor growth inhibition) ([8]; HCC1954, 100 mg/kg PO daily for 21 days): 30%
anti-tumor effect ([8]; HCC1954, comparator): tumor stasis
anti-tumor effect (FIG. 29) ([8]; HCC1954 xenograft, Compound 5 100 and 250 mg/kg, tucatinib 100 mg/kg): did not achieve tumor stasis
TGI (tumor growth inhibition) [9]: 99%
TGI (tumor growth inhibition) [10]: 90%
anti-tumor activity, in words [11]: ineffective; also recorded: weak or no activity; also recorded: weak/no activity
antitumor effect in intracranial model, in words ([12]; NCI-N87-luc intracranial xenograft): only modest single agent effect
Tumor Growth Inhibition ([12]; Day 5): 9%
Tumor Growth Inhibition ([12]; Day 9): −11%
Tumor Growth Inhibition ([12]; Day 13): −14%
Tumor Growth Inhibition ([12]; Day 16): 18%
Tumor Growth Inhibition ([12]; Day 19): 45%
Tumor Growth Inhibition ([12]; Day 23): 25%
Tumor Growth Inhibition ([12]; Day 26): 30%
